Values of other authors as cited in patent US10973866B2, “Compositions and methods for treating, inhibiting the onset, and slowing the progression of erectile dysfunction including naturally occurring age related erectile dysfunction” (K.L.R.M., LLC, priority 2010, dated 2021).

Legend:
[1] = system: erectile function; settings: men in their 30's with normal erectile function
[2] = human, in vivo

In the case of `CCCc1nn(C)c2c(=O)[nH]c(-c3cc(S(=O)(=O)N4CCN(C)CC4)ccc3OCC)nc12` [Viagra], the “erectile function as measured by the IIEF” value [1] is listed as “increased erectile function” and the refractory period [1] is listed as “decrease in the refractory period”.
In the case of `NC(=O)NCCC[C@H](N)C(=O)O` [L-citrulline], the side effects [2] is listed as “no known side effects”.
